Experimental data reported in publication PMC5681660, “Reduced hepatitis B and D viral entry using clinically applied drugs as novel inhibitors of the bile acid transporter NTCP” (Scientific Reports, 2017).
“Also recorded” adds a separate entry of the source. Where two headings read alike, the source gives them in different places.

How the values were obtained:
[1] = WST-1 cytotoxicity, wildtype U2OS cells; settings: human; for viability at 2 h, 1 µM / viability at 2 h, 10 µM / viability at 2 h, 100 µM: wildtype U2OS cells
in vitro = settings: human
mouse NTCP = molecular target: T1, mouse NTCP (Mus musculus, UniProt O08705); test: Taurocholate uptake in U2OS cells transiently transfected with mouse NTCP; format: cell-based; settings: at the calculated IC50 value for hNTCP
T1 construct: expressed in transfected cells; host or cells: U2OS (transient transfection, PEI)
T1 sequence (O08705 1-362): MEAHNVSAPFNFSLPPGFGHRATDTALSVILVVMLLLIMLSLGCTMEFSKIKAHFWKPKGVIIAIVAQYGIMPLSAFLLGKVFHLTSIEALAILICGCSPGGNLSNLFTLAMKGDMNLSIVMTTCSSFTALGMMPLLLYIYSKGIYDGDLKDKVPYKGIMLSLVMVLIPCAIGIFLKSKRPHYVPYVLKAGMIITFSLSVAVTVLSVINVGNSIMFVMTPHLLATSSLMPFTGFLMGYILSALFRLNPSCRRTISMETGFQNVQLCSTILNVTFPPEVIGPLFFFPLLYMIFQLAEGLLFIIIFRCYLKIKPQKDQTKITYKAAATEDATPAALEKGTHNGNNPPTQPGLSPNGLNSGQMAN
Method: U2OS and MDCK cells were grown in Dulbecco’s modified Eagle’s medium (DMEM, Sigma-Aldrich), supplemented with 10% FCS (Gibco), 1% L-glutamine (Lonza), and 1% penicillin/streptomycin (Lonza). […] Transient transfection of U2OS cells with mouse NTCP (mNTCP) was done with PEI reagent (Brunschwig, Basel, Switzerland). Shortly, U2OS cells were seeded one day prior to transfection in 24-well plates. On the day of transfection, 0.5 µg DNA was mixed with 100 µl unsupplemented DMEM and 3 µg/µl PEI. After 10–15 minute incubation at RT, 20 µl of the transfection mix was added to each 24-well. Transfected cells were used in further experiments 48–72 hours later. Cell lines were passaged twice a week at a confluence of 80%, and incubated in a humidified atmosphere of 37 °C + 5% CO2.
(§1) For MDCK or MDCK-hASBT cells 70.000 cells/well were plated in 24-well plates, followed by 24 hours 10 mM sodium butyrate (Sigma-Aldrich) stimulation the next day. Cells were used in the inhibition studies 24 hours (U2OS cell lines) or 48 hours (MDCK cell lines) later. Inhibition studies with mNTCP transiently transfected cells were conducted 48–72 hours after transfection.
(§2) Medium was aspirated from the wells and cells were washed once with 250 µL uptake buffer. Subsequently, cells were pre-incubated with drug in 150 µL uptake buffer for 10 minutes at 37 °C. Taurocholate uptake was initiated by addition of 100 µL uptake buffer containing taurocholate (final concentration 10 µM TC spiked with tritium-labeled TC) and cells were incubated for 2 minutes at 37 °C. Subsequently, cells were washed 4 times with ice-cold PBS and lysed with 0.05% SDS in water. Radioactivity was measured by liquid scintillation counting.

human NTCP [2] = molecular target: T2, human NTCP (Homo sapiens, UniProt Q14973); test: Taurocholate uptake inhibition studies in U2OS-HA-hNTCP cells; format: cell-based; design: HA; expressed in transfected cells; settings: for IC50: U2OS-HA-hNTCP cells, concentrations 1 nM to 10 mM, read-out: IC50 for hNTCP-mediated TC uptake; for Taurocholate uptake into U2OS-HA-hNTCP cells (in words): increasing drug concentrations
T2 sequence (Q14973 1-349): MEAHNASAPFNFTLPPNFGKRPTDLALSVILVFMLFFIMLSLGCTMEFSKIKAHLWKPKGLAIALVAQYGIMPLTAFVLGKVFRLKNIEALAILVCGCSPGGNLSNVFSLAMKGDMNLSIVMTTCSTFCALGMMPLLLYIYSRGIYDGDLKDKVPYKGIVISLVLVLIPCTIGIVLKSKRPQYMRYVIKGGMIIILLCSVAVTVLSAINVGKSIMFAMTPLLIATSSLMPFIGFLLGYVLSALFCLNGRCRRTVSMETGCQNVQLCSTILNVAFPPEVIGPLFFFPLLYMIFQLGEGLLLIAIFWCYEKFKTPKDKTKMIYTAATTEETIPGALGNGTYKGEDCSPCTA
Method: as §1, §2

human NTCP [3] = molecular target: T2, human NTCP; test: Myrcludex B-FITC binding by confocal microscopy in U2OS-HA-hNTCP cells; design: HA; expressed in transfected cells; settings: for Myrcludex B-FITC fluorescence / binding to U2OS-HA-hNTCP cells (in words): co-administration with increasing amounts of drug; for ≥50% loss of Myrcludex B binding to hNTCP (concentration): confocal microscopy, 0.2 µM Myrcludex B-FITC, drug 1, 10, 100 µM, concentration at which binding inhibited minimally 50%
Method: After 24 hours, medium was aspirated and cells were washed once with 300 µl Leibovitz’s L-15 Medium (Invitrogen). A 30 minute incubation period followed in which all cells were incubated with 0.2 µM Myrcludex B-FITC with or without drug (1, 10, 100 µM) and Hoechst (1/1000) in 300 µL Leibovitz’s L-15 Medium. Cells were washed twice with Leibovitz’s L-15 Medium and subsequently 400 µL Leibovitz’s L-15 Medium was added. Live cell fluorescent imaging was performed using a Leica SP8X-SMD confocal microscope with fully enclosed incubation at 37 °C. A 63x oil objective was used and images were captured while the cells were consecutively excited at 490 nm (FITC) 350 nm (Hoechst). ImageJ software (National Insititutes of Health, Bethesda, MD) was employed for data analysis.

human NTCP [4] = molecular target: T2, human NTCP; test: Screening taurocholate uptake assay (96-well, [14C]taurocholate, 10 µM drug); settings: for B-score functional assay: 10 µM drug
U2OS cells = test: WST-1 cytotoxicity, wildtype U2OS cells; settings: U2OS cells, 2 hours
U2OS-HA-hNTCP cells = settings: 2 hours
HDV = HDV infection of HepaRG cells (HDAg immunofluorescence); format: cell-based, hepatitis delta virus; settings: HDAg positive cells, day 5; concentration-dependent
HBV = settings: for HBV infection in HepaRG cells (in words): HBeAg, HBsAg, HBcAg, concentration-dependent
human NTCP [5] = molecular target: T2, human NTCP; test: Screening fluorescent competitive Myrcludex B-FITC binding assay (96-well, 10 µM drug); settings: 10 µM drug
[6] = ranking over the functional and the binding screening assay

Compound | viability at 2 h, 1 µM [1] [%] | viability at 2 h, 10 µM [1] [%] | viability at 2 h, 100 µM [1] [%] | viability at 2 h, 1 µM (in vitro; U2OS-HA-hNTCP cells) [%] | viability at 2 h, 10 µM (in vitro; U2OS-HA-hNTCP cells) [%] | viability at 2 h, 100 µM (in vitro; U2OS-HA-hNTCP cells) [%] | IC50 (human NTCP [2]) [µM] | Taurocholate uptake into U2OS-HA-hNTCP cells (in words) (human NTCP [2]) | Myrcludex B-FITC fluorescence / binding to U2OS-HA-hNTCP cells (in words) (human NTCP [3]) | ≥50% loss of Myrcludex B binding to hNTCP (concentration) (human NTCP [3]) | Ranking score (human NTCP [4]; [6]) | B-score functional assay (human NTCP [4]; screening taurocholate uptake) | also measured
CC(C)c1ccc2oc3nc(N)c(C(=O)O)cc3c(=O)c2c1 [Amlexanox] | 88.2 ± 9.6 | 94.8 ± 13.8 | 77.3 ± 5.6 | 99.6 ± 6.1 | 102 ± 18.9 | 92.7 ± 17.8 | – | – | – | – | – | – | –
O=C(O)c1ccccc1Nc1cccc(C(F)(F)F)c1 [Flufenamic Acid, Flufenamic acid] | 109 ± 9.1 | 108 ± 8.5 | 104 ± 3.6 | 125 ± 15.2 | 118 ± 9.6 | 107 ± 9.6 | 10 | reduced in a dose-dependent fashion | reduced Myrcludex B-FITC fluorescence | ≥100 µM | 48.7852 | -5.588 | inhibition of mouse Ntcp-mediated taurocholate uptake compared with human NTCP (mouse NTCP): more capable of inhibiting mouse Ntcp; also recorded: more potent in inhibiting mouse NTCP; ≥50% loss of Myrcludex B binding to hNTCP (concentration) (human NTCP [3]; listed as Flufenamic acid): ≤ 100 µM
Nc1c2c(nc3ccccc13)CCCC2O.O=C(O)/C=C\C(=O)O (stereo not drawn) [Hydroxytacrine Maleate] | – | – | – | – | – | – | 4200 | not | not | Not confirmed | – | – | cell viability by WST-1 (U2OS cells; 1 µM): 107.6 ± 15.7%; cell viability by WST-1 (U2OS cells; 10 µM): 100.7 ± 7.1%; cell viability by WST-1 (U2OS cells; 100 µM): 95.8 ± 3.9%; cell viability by WST-1 (U2OS-HA-hNTCP cells; 1 µM): 105.6 ± 1.2%; cell viability by WST-1 (U2OS-HA-hNTCP cells; 10 µM): 102 ± 8.3%; cell viability by WST-1 (U2OS-HA-hNTCP cells; 100 µM): 96.7 ± 5.9%; outcome of follow-up screening of hits found in only one of the two screens (human NTCP [2]; follow-up of TC uptake and Myrcludex B binding): false positives
CS(=O)(=O)O.Cc1c(O)cccc1C(=O)N[C@@H](CSc1ccccc1)[C@H](O)CN1C[C@H]2CCCC[C@H]2C[C@H]1C(=O)NC(C)(C)C [Nelfinavir Mesylate Hydrate] | – | – | – | – | – | – | 134 | reduced in a dose-dependent fashion | reduced Myrcludex B-FITC fluorescence | ≥100 µM | – | – | cell viability by WST-1 (U2OS cells; 1 µM): 105.9 ± 8.4%; cell viability by WST-1 (U2OS cells; 10 µM): 102 ± 10.7%; cell viability by WST-1 (U2OS cells; 100 µM): 95.1 ± 5.6%; cell viability by WST-1 (U2OS-HA-hNTCP cells; 1 µM): 105.3 ± 7.1%; cell viability by WST-1 (U2OS-HA-hNTCP cells; 10 µM): 99.8 ± 5.2%; cell viability by WST-1 (U2OS-HA-hNTCP cells; 100 µM): 104.8 ± 4.5%
O=C(O)Cc1cc(I)c(Oc2ccc(O)c(I)c2)c(I)c1 [TRIAC, 3,3′,5-Triiodothyroacetic acid] | 100 ± 7.5 | – | 81.6 ± 3.8 | – | – | – | – | – | – | – | – | – | HDV infection in HepaRG cells (in words) (HDV): reduced HBV/HDV infection; also recorded: reduce; HBV infection in HepaRG cells (in words) (HBV): reduced HBV/HDV infection; also recorded: reduce; number of HBcAg positive stained cells (HBV; HepaRG cells, day 10 post HBV infection, 50 µM): mild reduction; viability at 2 h, 1 µM (in vitro): 109 ± 4.1%; viability at 2 h, 10 µM (in vitro): 105 ± 2.1%; viability at 2 h, 100 µM (in vitro): 86.3 ± 4.9%
Cc1c(Cl)cccc1Nc1ccccc1C(=O)O [Tolfenamic Acid, Tolfenamic acid] | – | – | – | 116 ± 10.3 | 118 ± 13 | 107 ± 12.4 | 12.5 | reduced in a dose-dependent fashion | reduced Myrcludex B-FITC fluorescence | ≥100 µM | 28.5657 | -4.169 | viability at 1 µM [1]: 94.7 ± 6.3%; viability at 10 µM [1]: 105 ± 11.7%; viability at 100 µM [1]: 82.1 ± 4.8%; inhibition of mouse Ntcp-mediated taurocholate uptake compared with human NTCP (mouse NTCP): inhibited similarly as human NTCP; ≥50% loss of Myrcludex B binding to hNTCP (concentration) (human NTCP [3]; listed as tolfenamic acid): ≤ 100 µM
Cc1cc(-n2c(=O)[nH]c(=O)n(C)c2=O)ccc1Oc1ccc(SC(F)(F)F)cc1 [Toltrazuril] | 115 ± 6.1 | 109 ± 11.8 | 101 ± 3.6 | 100 ± 9.9 | 109 ± 12.9 | 105 ± 11.4 | 84.1 | reduced in a dose-dependent fashion | reduced Myrcludex B-FITC fluorescence | ≥10 µM | 35.4965 | -3.14 | –
CCCCC1=NC2(CCCC2)C(=O)N1Cc1ccc(-c2ccccc2-c2nnn[nH]2)cc1 [irbesartan, reference compound] | – | – | – | – | – | – | – | – | – | – | 197.737 | -3.733 | HDV infection in HepaRG cells (in words) (HDV): reduce; HBV infection in HepaRG cells (in words) (HBV): reduce; concentration effective in reducing HBeAg and HBsAg production (HBV; HepaRG cells infected with HBV, supernatant day 7 to 10): 17 µM; NTCP inhibition in the screen (in words) (human NTCP [4]; 10 µM, both screening assays): confirmed NTCP inhibition; position among the hits of the screen (combined ranking of both screening assays) (human NTCP [4]; 1280 drugs at 10 µM, TC uptake and Myrcludex B binding screens combined): ≤ 150
Spiramycin | – | – | – | – | – | – | – | – | – | – | – | – | B-score functional assay (human NTCP [4]; Prestwick library screen, B-score of taurocholate uptake): 0.83; Ranking score (human NTCP [4]; combined ranking from functional and binding assay B-scores): 1002.4; B-score binding assay (human NTCP [5]; Prestwick library screen, B-score of Myrcludex B-FITC binding): 0.801
Tyloxapol | – | – | – | – | – | – | – | – | – | – | – | – | B-score functional assay (human NTCP [4]; screen, taurocholate uptake): -1.163; B-score binding assay (human NTCP [5]; screen, Myrcludex B-FITC binding): 0.59
